Test results: paper PMC5301048, “Selection and early clinical evaluation of the brain‐penetrant 11β‐hydroxysteroid dehydrogenase type 1 (11β‐HSD1) inhibitor UE2343 (Xanamem™)” (British Journal of Pharmacology, 2017)
Read-outs that look alike come from different tables or passages of the source.

Experiments:
[1] = Tissue exposure measurements in rats (plasma and brain); assay type: in vivo; settings: rat
Protocol: The circulating plasma levels and tissue distribution of compounds were determined according to the method described in WO2011135276 (Webster et al., 2011a). Animals were group‐housed, had free access to food and water and were maintained in accordance with UK Home Office regulations. The animal work was conducted under UK Home Office Project Licence no. PPL 60/3915.
Compounds were prepared in 0.9% saline containing 2% DMSO (v^.v^‐1) and 38% PEG400 (v^.v^‐1) and administered to male Sprague Dawley rats by oral gavage such that the final concentration of compound was 10 mg·kg^−1. Rats (n = 3 per time point) were killed by decapitation at 1, 4 and 6 h post dosing, and trunk blood and tissues (liver, adipose and brain) were excised. Blood samples at 0.5 and 2 h post dosing were taken by a tail nick from the 4 and 6 h rats respectively.
Compounds were triple extracted from plasma (prepared from blood by a high speed centrifugation step) and spiked with 1 μg of a standard compound using ethyl acetate. Extracts were dried under nitrogen and re‐suspended in 60% methanol/40% ammonium acetate (5 mM).
A known weight of tissue was homogenized in 3 volumes of Krebs buffer. The compound was triple extracted with ethyl acetate from the supernatant of a low speed spin spiked with […] of a standard compound. Extracts were dried under nitrogen and re‐suspended in 60% methanol/40% ammonium acetate (5 mM).
Samples from plasma and tissue were analysed by TSQ Quantum Discovery Tandem Mass Spectrometer and Surveyor Liquid Chromatogram (Thermo, Hemel‐Hempstead, UK). Then 10 μL of each sample was injected in a mobile phase consisting of 60% methanol/40% ammonium acetate (5 mM) at a flow rate of 0.5 mL·min^−1. The column used was a BDS hypersil C18, 50 × 2.1 mm with a 5 μm particle size.
Each compound was tuned with a spray voltage of 3000 V and a capillary temperature of 300°C, and values for tube lens, CID and product ions were determined. The peak area for each compound and for the internal standard was determined, and the concentration of compound ^. g^‐1 of tissue or mL^‐1 of plasma was calculated by comparison of the peak area ratio to a standard curve.

[2] = Microsomal stability, rat liver microsomes; assay type: in vitro ADME; settings: mean ± SD [n]
Protocol: Microsomal stability was determined using pooled human, rat or dog liver microsomes according to the method described in WO2011135276 (Webster et al., 2011a).

[3] = target: T1, CYP3A4 (Homo sapiens, UniProt P08684); test: Cytochrome P450 inhibition, CYP3A4; assay type: in vitro ADME; settings: human liver microsomes; read-out: CYP450 isoform 3A4 IC50
T1 construct: tissue Cyprotex Discovery Limited; host or cells: human liver microsomes
T1 sequence (P08684 whole entry, canonical isoform): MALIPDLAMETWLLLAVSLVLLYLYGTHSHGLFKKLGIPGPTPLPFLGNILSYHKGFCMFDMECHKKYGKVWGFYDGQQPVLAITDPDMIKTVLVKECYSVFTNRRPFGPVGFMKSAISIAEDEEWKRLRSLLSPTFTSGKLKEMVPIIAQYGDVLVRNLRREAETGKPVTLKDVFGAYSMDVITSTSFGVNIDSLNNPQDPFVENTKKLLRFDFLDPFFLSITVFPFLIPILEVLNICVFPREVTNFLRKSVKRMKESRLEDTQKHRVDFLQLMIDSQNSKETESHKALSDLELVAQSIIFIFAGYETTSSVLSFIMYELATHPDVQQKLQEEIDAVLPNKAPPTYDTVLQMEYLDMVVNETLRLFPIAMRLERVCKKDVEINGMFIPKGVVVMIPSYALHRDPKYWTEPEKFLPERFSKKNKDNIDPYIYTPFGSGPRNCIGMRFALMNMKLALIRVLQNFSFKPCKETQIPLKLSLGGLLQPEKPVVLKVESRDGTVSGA
Protocol: Testing was performed by Cyprotex Discovery Limited, Cheshire, UK. Six test compound concentrations (0.4, 1, 4, 10, 40 and 100 μM; final DMSO concentration 0.25%, final microsome concentration 0.25 mg·mL^−1) were either pre‐incubated for 30 min in the absence and presence of NADPH or underwent a 0 min pre‐incubation with human liver microsomes. At the end of the pre‐incubation period, the probe substrate for each cytochrome P450 (CYP450) isoform (30 μM) and NADPH (1 mM) were then added (final DMSO concentration 0.3%), and the samples were incubated for 5 min at 37°C. Probe substrates were as follows: 1A2 – phenacetin, 2C9 – diclofenac, 2C19 – mephenytoin, 2D6 – dextromethorphan, 3A4 – midazolam and testosterone. Samples were subjected to LC–MS/MS analysis to determine metabolite concentrations. A decrease in the formation of the metabolite compared with vehicle control was used to calculate an IC50 value (test compound concentration which produces 50% inhibition) for each experimental condition.

[4] = Plasma protein binding, rat plasma; assay type: in vitro ADME; settings: mean ± SD [n]

- Kp ([1]; male, Sprague Dawley, brain (relative to free plasma), oral, 10 mg·kg^−1, rat plasma protein binding taken into account, read-out: brain : plasma free ratio): 0.43
- Kp ([1]; male, Sprague Dawley, brain and plasma, 10 mg·kg^−1 oral gavage, read-out: Brain : plasma ratio): 0.11
- Cmax ([1]; male, Sprague Dawley, plasma, po, 10 mg/kg, 10 mg·kg^−1 oral gavage, mean ± SD): 1540 ± 657 ng/mL
- level in brain as % of the free plasma concentration [1]: 43%
- Brain Cmax ([1]; 10 mg·kg^−1 oral gavage, mean ± SD): 173 ± 80 ng/mL
- Liver microsomal stability (% parent at 30 min), rat [2]: 74 ± 1 [3] % parent at 30 min
- IC50 [3]: > 50 µM
- Plasma protein binding (% unbound), rat [4]: 26 ± 0 [2] % unbound
Compound: O=C(c1csc(-c2cn[nH]c2)c1)N1C2CCC1CC(O)(c1ncccn1)C2 (centres unmarked) [compound 4]
